According to the supplement of paper PMC4932681:

Experiments:
BT-474 Tam1 [1] = experiment: drug sensitivity score (DSS) (DSS (dimensionless)); higher = more sensitive; extreme values may be limits of the assay; conditions: 4-OH-tamoxifen in medium 1 µM; 72 h
Method: (§1)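 FIMM FO2B library drugs were tested at 5 concentrations (10,000-fold range) for 72 h, with CellTiter-Glo viability normalised to DMSO and benzethonium chloride controls. The Drug Sensitivity Score (DSS) is computed from the fitted logistic dose-response curve (area-based; 0 = inactive). Resistant lines and the 'in 1µM tamoxifen' arms were tested in 1 µM 4-OH-tamoxifen.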

BT-474 Tam2 [2] = experiment: as above; conditions: 4-OH-tamoxifen in medium 1 µM; 72 h
Method: as §1

BT-474 [3] = experiment: as above; conditions: 72 h
Method: as §1

MCF-7 Tam1 [4] = experiment: as above; conditions: 4-OH-tamoxifen in medium 1 µM; 72 h
Method: as §1

MCF-7 [5] = experiment: as above; conditions: 72 h
Method: as §1

T-47D Tam1 [6] = experiment: as above; conditions: 4-OH-tamoxifen in medium 1 µM; 72 h
Method: as §1

T-47D Tam2 = experiment: as above; conditions: 4-OH-tamoxifen in medium 1 µM; 72 h
Method: as §1

T-47D [7] = experiment: as above; conditions: 72 h
Method: as §1

ZR-75-1 Tam1 [8] = experiment: as above; conditions: 4-OH-tamoxifen in medium 1 µM; 72 h
Method: as §1

ZR-75-1 Tam2 [9] = experiment: as above; conditions: 4-OH-tamoxifen in medium 1 µM; 72 h
Method: as §1

ZR-75-1 [10] = experiment: as above; conditions: 72 h
Method: as §1

BT-474 Tam1 [11] = experiment: relative IC50 (midpoint of fitted logistic curve, plateau may be below 50% inhibition; CellTiter-Glo viability); higher = less potent; conditions: 4-OH-tamoxifen in medium 1 µM; 72 h
Method: (§2)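 FIMM FO2B library drugs were plated at 5 concentrations spanning a 10,000-fold range in 384-well plates. Cells were incubated for 72 h at 37 °C and viability was read by CellTiter-Glo, normalised to DMSO (0% inhibition) and 100 µM benzethonium chloride (100% inhibition). IC50 values come from logistic dose-response fits (Breeze pipeline). Tamoxifen-resistant lines and the 'in 1µM tamoxifen' parental arms were tested in medium with 1 µM 4-OH-tamoxifen.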

BT-474 Tam2 [12] = experiment: as above; conditions: 4-OH-tamoxifen in medium 1 µM; 72 h
Method: as §2

BT-474 [13] = experiment: as above; conditions: 72 h
Method: as §2

MCF-7 Tam1 [14] = experiment: as above; conditions: 4-OH-tamoxifen in medium 1 µM; 72 h
Method: as §2

MCF-7 [15] = experiment: as above; conditions: 72 h
Method: as §2

T-47D Tam1 [16] = experiment: as above; conditions: 4-OH-tamoxifen in medium 1 µM; 72 h
Method: as §2

T-47D [17] = experiment: as above; conditions: 72 h
Method: as §2

ZR-75-1 Tam1 [18] = experiment: as above; conditions: 4-OH-tamoxifen in medium 1 µM; 72 h
Method: as §2

ZR-75-1 Tam2 [19] = experiment: as above; conditions: 4-OH-tamoxifen in medium 1 µM; 72 h
Method: as §2

ZR-75-1 [20] = experiment: as above; conditions: 72 h
Method: as §2

SMILES	drug sensitivity score (BT-474 Tam1 [1])	drug sensitivity score (BT-474 Tam2 [2])	drug sensitivity score (BT-474 [3]; 4-OH-tamoxifen in medium 0 µM)	drug sensitivity score (BT-474 [3]; 4-OH-tamoxifen in medium 1 µM)	drug sensitivity score (MCF-7 Tam1 [4])	drug sensitivity score (MCF-7 [5]; 4-OH-tamoxifen in medium 0 µM)	drug sensitivity score (MCF-7 [5]; 4-OH-tamoxifen in medium 1 µM)	drug sensitivity score (T-47D Tam1 [6])	drug sensitivity score (T-47D Tam2)	drug sensitivity score (T-47D [7]; 4-OH-tamoxifen in medium 0 µM)	drug sensitivity score (T-47D [7]; 4-OH-tamoxifen in medium 1 µM)	drug sensitivity score (ZR-75-1 Tam1 [8])	drug sensitivity score (ZR-75-1 Tam2 [9])	drug sensitivity score (ZR-75-1 [10]; 4-OH-tamoxifen in medium 0 µM)	drug sensitivity score (ZR-75-1 [10]; 4-OH-tamoxifen in medium 1 µM)	relative IC50 (BT-474 Tam1 [11])	relative IC50 (BT-474 Tam2 [12])	relative IC50 (BT-474 [13]; 4-OH-tamoxifen in medium 0 µM)	relative IC50 (BT-474 [13]; 4-OH-tamoxifen in medium 1 µM)	relative IC50 (MCF-7 Tam1 [14])	relative IC50 (MCF-7 [15]; 4-OH-tamoxifen in medium 0 µM)	relative IC50 (T-47D Tam1 [16])	relative IC50 (T-47D [17]; 4-OH-tamoxifen in medium 0 µM)	relative IC50 (T-47D [17]; 4-OH-tamoxifen in medium 1 µM)	relative IC50 (ZR-75-1 Tam1 [18])	relative IC50 (ZR-75-1 Tam2 [19])	relative IC50 (ZR-75-1 [20]; 4-OH-tamoxifen in medium 0 µM)	relative IC50 (ZR-75-1 [20]; 4-OH-tamoxifen in medium 1 µM)	relative IC50 (MCF-7 [15]; 4-OH-tamoxifen in medium 1 µM)
Nc1nc(Cl)nc2c1ncn2[C@@H]1O[C@H](CO)[C@@H](O)[C@@H]1F [Clofarabine]	0	0	0	0	0	4.41	2.44	5.4	1.77	1.21	0.982	1.26	0.782	0.522	0.104	> 10000 nM	> 10000 nM	> 10000 nM	> 10000 nM	> 10 µM	490 nM	616 nM	4.1 µM	–	–	–	–	–	–
C=CC(=O)N1CCC[C@@H](n2nc(-c3ccc(Oc4ccccc4)cc3)c3c(N)ncnc32)C1	31.9	29	18.1	26.2	0	0	2.36	2.76	0.549	0	0	0	0	0	0	2.12 nM	3.4 nM	13.4 nM	5.56 nM	> 1 µM	> 1000 nM	–	> 1 µM	> 1 µM	> 1000 nM	> 1000 nM	> 1000 nM	> 1000 nM	–
CC(C)Cn1cnc2c(N)nc3ccccc3c21 [Imiquimod]	0	0	0	0.268	0	0	0.399	1.59	0.195	0.182	0	0	0	0	0	> 10000 nM	–	> 10000 nM	–	> 10 µM	> 10000 nM	–	–	–	> 10000 nM	> 10000 nM	> 10000 nM	> 10000 nM	–
CC(C)(C)NC(=O)[C@H]1CC[C@H]2[C@@H]3CC[C@H]4NC(=O)C=C[C@]4(C)[C@H]3CC[C@]12C [Finasteride]	1.69	0.793	0	0	0	0	0.553	0.762	0.298	0	0	0	0	0	0	–	–	> 10000 nM	> 10000 nM	> 10 µM	> 10000 nM	–	> 10 µM	> 10 µM	> 10000 nM	> 10000 nM	> 10000 nM	> 10000 nM	–
NC(=O)Nc1cc(-c2cccc(F)c2)sc1C(=O)N[C@H]1CCCNC1 [AZD7762]	0	0	0	0	0	3.41	0	3	2.77	0	2	0	0	0	0	> 1000 nM	> 1000 nM	> 1000 nM	> 1000 nM	> 1 µM	129 nM	–	> 1 µM	–	> 1000 nM	> 1000 nM	–	> 1000 nM	> 1000 nM
CS(=O)(=O)CCNCc1ccc(-c2ccc3ncnc(Nc4ccc(OCc5cccc(F)c5)c(Cl)c4)c3c2)o1 [Lapatinib]	11.6	12.8	8.29	12.2	0	0	1.43	4	0.567	0	0	0	0	0	0	89.4 nM	65.9 nM	113 nM	82.4 nM	> 1 µM	> 1000 nM	–	> 1 µM	> 1 µM	> 1000 nM	> 1000 nM	> 1000 nM	> 1000 nM	–
CC1=C(/C=C/C(C)=C/C=C/C(C)=C/C(=O)O)C(C)(C)CCC1 [Tretinoin]	0	0	0	0	0	0	0.52	0.561	0.122	0	0	0	0	0	0	> 10000 nM	> 10000 nM	> 10000 nM	> 10000 nM	> 10 µM	> 10000 nM	–	> 10 µM	> 10 µM	> 10000 nM	> 10000 nM	> 10000 nM	> 10000 nM	–
CO[C@@]12[C@H](COC(N)=O)C3=C(C(=O)C(C)=C(N)C3=O)N1C[C@@H]1N[C@@H]12 [Mitomycin C]	0	0	0	0	0	0.369	0.228	1.35	0.0558	0.988	0	1.75	1.28	0.734	0.75	> 10000 nM	> 10000 nM	> 10000 nM	> 10000 nM	> 10 µM	–	3570 nM	–	> 10 µM	–	–	–	–	–
CN1CCc2c(c3ccccc3n2Cc2ccc(C(=O)NO)cc2)C1 [Tubastatin A]	1.77	0.145	0	0.725	0	0	0.884	0	0	0	0	0.0626	0.301	0.27	0.715	3120 nM	–	> 10000 nM	–	> 10 µM	–	> 10000 nM	> 10 µM	> 10 µM	–	–	–	–	–
CN(C)C/C=C/C(=O)Nc1cc2c(Nc3ccc(F)c(Cl)c3)ncnc2cc1O[C@H]1CCOC1 [Afatinib (BIBW2992, Tovok)]	21.9	21.8	15.3	20.5	0	0	0.328	1.83	0.583	0	0	0	0	0	0	12.4 nM	13.1 nM	25.7 nM	15.8 nM	> 1 µM	> 1000 nM	–	> 1 µM	> 1 µM	> 1000 nM	> 1000 nM	> 1000 nM	> 1000 nM	–
Cc1cc(C(C)Nc2ccccc2)c2nc(N3CCOCC3)cc(=O)n2c1 (centres undefined) [TGX-221]	1.23	1.6	0	0.562	0	1.97	2.11	0.102	0.389	0	0.16	9.5	14.3	13.2	11	–	4070 nM	> 10000 nM	–	> 10 µM	–	–	> 10 µM	–	193 nM	104 nM	74.3 nM	74.8 nM	–
O=c1[nH]c(=O)n([C@H]2C[C@H](O)[C@@H](CO)O2)cc1F [Floxuridine]	0	0	1.78	1.44	0	0.48	0	5.88	1.26	1.05	0	0.801	4.86	6.61	0.31	> 10000 nM	> 10000 nM	2410 nM	–	> 10 µM	–	1390 nM	–	> 10 µM	–	–	–	–	> 10000 nM
C1CN1c1nc(N2CC2)nc(N2CC2)n1 [Triethylenemelamine]	0	0	0	0	0	0	0	0.0501	0.12	0	0	0	0	0	0	> 10000 nM	> 10000 nM	> 10000 nM	> 10000 nM	> 10 µM	> 10000 nM	–	> 10 µM	> 10 µM	> 10000 nM	> 10000 nM	> 10000 nM	> 10000 nM	> 10000 nM
Cc1ccc(-n2nc(C(C)(C)C)cc2NC(=O)Nc2ccc(OCCN3CCOCC3)c3ccccc23)cc1 [Doramapimod (BIRB 796)]	1.04	0	0	0.211	0	0.173	0.239	0.342	1.06	0	0	0	0	0	0	–	> 10000 nM	> 10000 nM	–	> 10 µM	–	–	–	> 10 µM	> 10000 nM	> 10000 nM	> 10000 nM	> 10000 nM	–
CC(C)(C)c1cc(NC(=O)Nc2ccc(-c3cn4c(n3)sc3cc(OCCN5CCOCC5)ccc34)cc2)no1 [Quizartinib (AC220)]	0	0	0	0	0	0	0	0	0.279	0	0	0	0	0	0	> 1000 nM	> 1000 nM	> 1000 nM	> 1000 nM	> 1 µM	> 1000 nM	–	–	> 1 µM	> 1000 nM	> 1000 nM	> 1000 nM	> 1000 nM	> 1000 nM
COc1cc(F)c(F)c(Nc2ccc(I)cc2F)c1NS(=O)(=O)C1(C[C@H](O)CO)CC1 [Refametinib (RDEA119)]	3.68	0.629	0	6.44	3.77	3.75	3.88	4.09	1.2	1.6	0.324	0	0	0.912	0	571 nM	–	> 10000 nM	700 nM	0.389 µM	1410 nM	335 nM	–	–	–	–	–	> 10000 nM	1080 nM
